According to paper PMC13252604, “First Generation Proteolysis Targeting Chimeras (PROTACs) for the Treatment of Progeria” (Advanced Science, 2026):

Target: T1, progerin (Homo sapiens, UniProt P02545)
T1 construct: endogenous in cells; host or cells: HGADFN167 human HGPS fibroblasts (Progeria Research Foundation)
T1 sequence (P02545 1-614 isoform P02545-6): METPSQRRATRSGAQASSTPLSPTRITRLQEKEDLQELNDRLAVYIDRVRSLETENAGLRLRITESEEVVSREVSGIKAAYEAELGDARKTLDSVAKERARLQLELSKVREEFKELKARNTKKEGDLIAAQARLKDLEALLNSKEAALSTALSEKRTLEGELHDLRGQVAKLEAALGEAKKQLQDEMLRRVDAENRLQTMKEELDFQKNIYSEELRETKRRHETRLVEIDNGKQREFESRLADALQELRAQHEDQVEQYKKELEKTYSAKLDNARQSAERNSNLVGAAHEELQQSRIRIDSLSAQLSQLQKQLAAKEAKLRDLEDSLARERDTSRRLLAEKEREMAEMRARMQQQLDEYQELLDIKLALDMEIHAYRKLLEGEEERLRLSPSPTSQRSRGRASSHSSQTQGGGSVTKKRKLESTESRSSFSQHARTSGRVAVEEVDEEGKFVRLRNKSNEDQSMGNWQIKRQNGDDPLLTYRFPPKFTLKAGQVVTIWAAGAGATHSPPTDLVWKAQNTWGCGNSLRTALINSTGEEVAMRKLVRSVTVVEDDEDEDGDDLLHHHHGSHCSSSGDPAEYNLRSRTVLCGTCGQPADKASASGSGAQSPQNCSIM
Assay: Progerin quantification, immunoblot in human Lmna^G608G/G608G fibroblasts
Assay type: cell-based
Conditions: human Lmna^G608G/G608G patient-derived fibroblasts, vs vehicle
From the text: FIGURE 6 (A) Representative cropped immunoblots and progerin quantification in human Lmna^G608G/G608G fibroblasts. MW, molecular weight (in kDa) markers. […] (B) PROTAC 2 increases cell proliferation (upper panels) and decreases the number of misshapen nuclei (lower panels). White arrows highlight selected misshapen nuclei. (C) PROTAC 2 decreases senescence‐associated β‐galactosidase (SA‐βgal) activity, interleukin (IL) 6, p16 and p21 senescent markers. Bar graphs show mean±sem of 2 (SA‐βgal and p21) or 3 (IL‐6 and p16) independent experiments performed in triplicate. (D) PROTAC 2 decreases phosphorylated histone 2AX (pH2AX) and increases trimethylated histone 3 (H3K9Me3) levels. (E) PROTAC 2 increases the oxygen consumption rate (OCR), ATP production and the number of healthy mitochondria in human progeroid cells. […] Data were analysed using one‐way ANOVA followed by Dunnett's post–hoc test vs vehicle (panel A) or vs G608G cells (panels B‐E). ^*, p < 0.05; ^**, p < 0.01; ^***, p < 0.001; ^****, p < 0.0001. […]
was saturated at 100 ppm. Relative STD effects were calculated by comparing the intensity of the signals in the STD-NMR spectrum with signal intensities of the reference spectrum (off-resonance). The STD signal with the highest intensity was set to 100%, a nd other STD signals were calculated accordingly. […]
Cell viability was assessed as previously described.[64] […]

| SMILES | progerin levels (immunoblot quantification) |
| --- | --- |
| CC1(C)Oc2cc3oc(=O)ccc3cc2C[C@@H]1OC(=O)CCCCC(=O)Oc1ccc2c(c1)CCCN2C(=O)CCl [compound 12] | exhibited significant activity in human cells |
| CC1(C)Oc2cc3oc(=O)ccc3cc2C[C@@H]1OC(=O)CCCCCNc1cccc2c1C(=O)N(C1CCC(=O)NC1=O)C2=O (some centres unmarked) [compound 2] | the most potent in human cells |
